Assay results: ChEMBL document CHEMBL1201862, “PubChem BioAssay data set” (2004)
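These data come from cells grown in 96-well plates and exposed to compound for 48 hours at five concentrations. GI50 marks 50% less growth.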 Activity calls are given as the source filed them. No stated cut-off is given here; in the data, active = GI50 up to about 1.1 µM and inactive = higher.

What was measured:
Test in all cases: DTP human tumour cell line panel, 48 h
OVCAR-8 = system: OVCAR-8
SF-539 = system: SF-539
UACC-257 = system: UACC-257
Malme-3M = system: Malme-3M
SK-MEL-5 = system: SK-MEL-5
A498 = system: A498
HOP-62 = system: HOP-62
HL-60 = system: HL-60
HCT-116 = system: HCT-116
A549 = system: A549
M14 = system: M14
SW-620 = system: SW-620
OVCAR-3 = system: OVCAR-3
UO-31 = system: UO-31
MDA-MB-231 = system: MDA-MB-231
BT-549 = system: BT-549
NCI-H460 = system: NCI-H460
OVCAR-4 = system: OVCAR-4
EKVX = system: EKVX
SNB-19 = system: SNB-19
MDA-MB-435 = system: MDA-MB-435
NCI-H226 = system: NCI-H226
HT-29 = system: HT-29
SF-295 = system: SF-295
MCF7 = system: MCF7
T47D = system: T47D
RXF 393 = system: RXF 393
SN12C = system: SN12C
IGROV-1 = system: IGROV-1
Hs-578T = system: Hs-578T
HCT-15 = system: HCT-15
RPMI-8226 = system: RPMI-8226
786-0 = system: 786-0
SF-268 = system: SF-268
MOLT-4 = system: MOLT-4
UACC-62 = system: UACC-62
NCI-H522 = system: NCI-H522
CAKI-1 = system: CAKI-1
SK-OV-3 = system: SK-OV-3
TK-10 = system: TK-10
NCI/ADR-RES = system: NCI/ADR-RES
COLO 205 = system: COLO 205
LOX IMVI = system: LOX IMVI
SK-MEL-28 = system: SK-MEL-28
KM12 = system: KM12
PC-3 = system: PC-3
K562 = system: K562
SK-MEL-2 = system: SK-MEL-2
OVCAR-5 = system: OVCAR-5
U-251 = system: U-251
HCC 2998 = system: HCC 2998
SNB-75 = system: SNB-75
MDA-N = system: MDA-N
NCI-H23 = system: NCI-H23
ACHN = system: ACHN
DU-145 = system: DU-145
HOP-92 = system: HOP-92

Question: Which GI50 (OVCAR-8) does the source give for `CC1=NN(c2ccc(S(=O)(=O)O)cc2)C2(C1)SCC(=O)N2c1nc2ccccc2s1` (configuration not stated) here?
Answer: The GI50 was > 100 µM (inactive).

Question: And the GI50 (SF-539)?
Answer: The GI50 was > 100 µM (inactive).

Question: What about the GI50 (UACC-257) of the same compound?
Answer: The GI50 was > 100 µM (inactive).

Question: And the GI50 (Malme-3M)?
Answer: Its GI50 is > 100 µM (inactive).

Question: And the GI50 (SK-MEL-5)?
Answer: Its GI50 is > 100 µM (inactive).

Question: And the GI50 (A498)?
Answer: The GI50 was > 100 µM (inactive).

Question: What about the GI50 (HOP-62) of the same compound?
Answer: The GI50 was > 100 µM (inactive).

Question: And the GI50 (HL-60)?
Answer: The GI50 was 0.195 µM (active).

Question: And the GI50 (HCT-116)?
Answer: Its GI50 is > 100 µM (inactive).

Question: And the GI50 (A549)?
Answer: The GI50 was > 100 µM (inactive).

Question: What about the GI50 (M14) of the same compound?
Answer: Its GI50 is > 100 µM (inactive).

Question: And the GI50 (SW-620)?
Answer: Its GI50 is > 100 µM (inactive).

Question: What about the GI50 (OVCAR-3) of the same compound?
Answer: The GI50 was > 100 µM (inactive).

Question: What about the GI50 (UO-31) of the same compound?
Answer: Its GI50 is > 100 µM (inactive).

Question: What about the GI50 (MDA-MB-231) of the same compound?
Answer: The GI50 was > 100 µM (inactive).

Question: And the GI50 (BT-549)?
Answer: The GI50 was > 100 µM (inactive).

Question: And the GI50 (NCI-H460)?
Answer: The GI50 was > 100 µM (inactive).

Question: What about the GI50 (OVCAR-4) of the same compound?
Answer: Its GI50 is > 100 µM (inactive).

Question: What about the GI50 (EKVX) of the same compound?
Answer: Its GI50 is > 100 µM (inactive).

Question: What about the GI50 (SNB-19) of the same compound?
Answer: The GI50 was > 100 µM (inactive).

Question: What about the GI50 (MDA-MB-435) of the same compound?
Answer: The GI50 was > 100 µM (inactive).

Question: And the GI50 (NCI-H226)?
Answer: The GI50 was > 100 µM (inactive).

Question: And the GI50 (HT-29)?
Answer: The GI50 was > 100 µM (inactive).

Question: What about the GI50 (SF-295) of the same compound?
Answer: Its GI50 is > 100 µM (inactive).

Question: And the GI50 (MCF7)?
Answer: The GI50 was > 100 µM (inactive).

Question: What about the GI50 (T47D) of the same compound?
Answer: Its GI50 is > 100 µM (inactive).

Question: What about the GI50 (RXF 393) of the same compound?
Answer: Its GI50 is > 100 µM (inactive).

Question: And the GI50 (SN12C)?
Answer: Its GI50 is > 100 µM (inactive).

Question: What about the GI50 (IGROV-1) of the same compound?
Answer: The GI50 was > 100 µM (inactive).

Question: And the GI50 (Hs-578T)?
Answer: The GI50 was > 100 µM (inactive).

Question: And the GI50 (HCT-15)?
Answer: Its GI50 is > 100 µM.

Question: What about the GI50 (RPMI-8226) of the same compound?
Answer: Its GI50 is > 100 µM (inactive).

Question: And the GI50 (786-0)?
Answer: The GI50 was > 100 µM (inactive).

Question: And the GI50 (SF-268)?
Answer: The GI50 was > 100 µM (inactive).

Question: What about the GI50 (MOLT-4) of the same compound?
Answer: Its GI50 is 46.9 µM (inactive).

Question: What about the GI50 (UACC-62) of the same compound?
Answer: The GI50 was > 100 µM (inactive).

Question: What about the GI50 (NCI-H522) of the same compound?
Answer: Its GI50 is > 100 µM (inactive).

Question: What about the GI50 (CAKI-1) of the same compound?
Answer: Its GI50 is > 100 µM (inactive).

Question: And the GI50 (SK-OV-3)?
Answer: The GI50 was > 100 µM (inactive).

Question: And the GI50 (TK-10)?
Answer: Its GI50 is > 100 µM (inactive).

Question: What about the GI50 (NCI/ADR-RES) of the same compound?
Answer: The GI50 was > 100 µM (inactive).

Question: What about the GI50 (COLO 205) of the same compound?
Answer: The GI50 was > 100 µM (inactive).

Question: And the GI50 (LOX IMVI)?
Answer: The GI50 was 66.1 µM (inactive).

Question: And the GI50 (SK-MEL-28)?
Answer: The GI50 was > 100 µM (inactive).

Question: What about the GI50 (KM12) of the same compound?
Answer: Its GI50 is > 100 µM (inactive).

Question: What about the GI50 (PC-3) of the same compound?
Answer: Its GI50 is > 100 µM (inactive).

Question: And the GI50 (K562)?
Answer: The GI50 was > 100 µM (inactive).

Question: What about the GI50 (SK-MEL-2) of the same compound?
Answer: The GI50 was > 100 µM (inactive).

Question: What about the GI50 (OVCAR-5) of the same compound?
Answer: The GI50 was > 100 µM (inactive).

Question: What about the GI50 (U-251) of the same compound?
Answer: The GI50 was > 100 µM (inactive).

Question: And the GI50 (HCC 2998)?
Answer: Its GI50 is > 100 µM (inactive).

Question: And the GI50 (SNB-75)?
Answer: The GI50 was > 100 µM (inactive).

Question: And the GI50 (MDA-N)?
Answer: Its GI50 is > 100 µM (inactive).

Question: And the GI50 (NCI-H23)?
Answer: Its GI50 is > 100 µM (inactive).

Question: And the GI50 (ACHN)?
Answer: The GI50 was > 100 µM (inactive).

Question: What about the GI50 (DU-145) of the same compound?
Answer: The GI50 was > 100 µM (inactive).

Question: And the GI50 (HOP-92)?
Answer: The GI50 was > 100 µM (inactive).
